In patent US20170152245A1 (National Taiwan University, priority 2015, published 2017):
Read-outs that look alike come from different tables or passages of the source.

Tests used:
[1] = tested on: human platelet suspension; test: Collagen-induced platelet aggregation in human platelet suspension; type: cell-based; conditions: collagen 10 μg/ml; for IC50: Platelet, washed human platelets, read-out: IC50 collagen-induced platelet aggregation in human PS
Procedure: (§1) Human platelet suspension (PS) was prepared according to the method described previously. Briefly, blood sample, freshly obtained from healthy volunteers who had taken no medications during the preceding 2 weeks, was treated with acid citrate/dextrose (ACD) in a volume ratio of 9:1. After centrifugation at 120 g, 25° C. for 9 min, platelet-rich plasma was transferred into another plastic tube and incubated with heparin (6.4 U/ml) as well as prostaglandin E1 (1 μM). Platelets were spun down by centrifugation at 500 g, 25° C. for 8 min and subsequently washed two times with Tyrode solution (NaH2PO4 0.4 mM; NaCl 136.9 mM; KCl […]; NaHCO3 11.9 mM; CaCl2 2 mM; MgCl2 2.1 mM; glucose 11.1 mM; BSA 3.5 mg/ml; pH 7.35-7.4). The washed platelets were finally suspended in Tyrode's solution and the platelet count was adjusted to 3.75×10^8 platelets/ml. For platelet-rich plasma (PRP) preparation, whole blood was anticoagulated with 1/10 vol of sodium citrate (3.8%, w/v) and centrifuged at 150 g, 25° C. for 9 min.
(§2) Platelet aggregation was measured turbidimetrically with a Lumi-aggregometer (Payton Scientific) at 37° C. under stirring condition (900 rpm). Platelet suspensions were prewarmed to 37° C. for 2 min in a silicone-treated glass cuvette. Nstpbp5185 was added 3 min before the addition of platelet-aggregation inducers. The extent of platelet aggregation was determined by recording the increase of light transmission relative to that of control (maximal aggregation, as 100%) for 6 min after the addition of inducer. The final volume and platelet count for measuring platelet aggregation were 500 μl and 3×10^8/ml, respectively.

[2] = tested on: human platelet suspension; test: U46619-induced platelet aggregation in human platelet suspension; type: cell-based; conditions: for IC50: Homo sapiens; for shift of the concentration-response curve of U46619: nstpbp5185 2 and 3 μM with indomethacin, Ctkf6f2 1 μM; for U46619 needed to induce the full aggregation: platelets pretreated with 1 μM compound
[3] = tested on: human platelet-rich plasma; test: Collagen-induced platelet aggregation in human platelet-rich plasma; type: cell-based
Procedure: as §1, §2

human platelets [4] = test: Flow cytometric analysis of P-selectin expression; type: cell-based; conditions: for U46619-induced P-selectin expression: U46619 1 μM; for collagen-induced P-selectin expression: collagen 10 μg/ml
Procedure: […] Then the sample was further incubated with FITC-labeled anti-CD62P in the dark at room temperature. Prior to analysis, the volume was adjusted to 1 mL/tube with Tyrode's solution. The suspensions were immediately assayed by fluorescence activated cell sorter (Becton-Dickinson, FACScan System, San Joe, Calif.) using excitation and emission wavelength of 488 and 525 nm, respectively. Data were collected from 10000 platelets per experimental group. The level of P-selectin expression was expressed as mean fluorescence intensity.

[5] = tested on: human platelet suspension; test: Thromboxane B2 formation in human platelet suspension; type: cell-based
Procedure: Human platelet suspension (3.75×10^8/ml) was preincubated in the presence or absence of nstpbp5185 or aspirin for 3 min before the addition of collagen or AA. Six minutes after the addition of agonist, […] indomethacin and 2 mM EDTA were added to the reaction suspension. After centrifugation in an Eppendorf centrifuge at 14,000 g for 2 min, the thromboxane B2 (TXB2), the stable metabolite of TXA2, levels of the supernatant were measured using a competitive enzyme-immuno assay (EIA) kit according to the instructions of the manufacturer.

mice = test: Pulmonary thromboembolism caused by collagen/epinephrine; type: in vivo; conditions: for survival rate after 1 day: n=4
Procedure: (A) Mice were i.v. injected with vehicle (DMSO as control), nstpbp5185 (10 μg/g) or Ctkf6f2 (10 μg/g), then injected with collagen/epinephrine to induce pulmonary embolism model. After the onset of respiratory arrest, lungs were excised. […] Histologic analysis was performed on H&E-stained sections of lung from each mouse. […] (B) Survival rate of mice injected with DMSO as control, nstpbp5185 (10 μg/g) or Ctkf6f2 (10 μg/g) after induction of pulmonary thromboembolism in 30 min, 1 hr and 24 hr (n=4). (C) Representative images of lung isolated after the onset of respiratory arrest, but while the heart was still beating, 0.5 ml of Evans blue solution was injected into the heart. Lungs were excised, and photographed.
Male mice (ICR, 25±3 g) received collagen (0.6 μg/g) plus epinephrine (0.2 μg/g) by tail vein injection. While the respiration is very weak and the heart was still beating, 0.5 mL of Evans blue solution (1% in saline; Sigma) was injected into the heart. Lungs were excised, photographed and fixed with paraldehyde, embedded into paraffin, and sectioned. Histological analysis was performed on hematoxylin and eosin-stained (H&E) sections of lung from each mouse. Nstpbp5185 (10 μg/g) or DMSO vehicle was intravenously given prior to collagen/epinephrine. Mortality after challenge was calculated as percentage of death after injection of collagen/epinephrine, the end time will be […].

human platelets [6] = test: Platelet [Ca2+]i mobilization by Fura 2-AM fluorescence; type: cell-based; conditions: for collagen-evoked increase of [Ca2+]i: collagen 10 μg/ml, Fura-2-loaded platelets
Procedure: After centrifugating platelet-rich plasma at 500 g, 25° C. for 8 min, isolated platelets were resuspended in Ca^2+-free Tyrode solution. The platelet suspensions were protected from light and incubated with Fura 2-AM (5 μM) at 37° C. for 30 min. Human platelets were then prepared as described previously. The washed platelet count was adjusted to 3-4.5×10^8 platelets/ml. Finally, the external Ca^2+ concentration of the platelet suspensions was adjusted to 1 mM. The rise in [Ca^2+]i was measured using a fluorescence spectrophotometer (CAF 110, Jasco, Japan) at excitation wavelengths of 340 and 380 nm, and an emission wavelength of 500 nm. [Ca^2+]i was calculated from the fluorescence, using 224 nM as the Ca^2+-Fura 2 dissociation constant.

[7] = tested on: receptor tyrosine kinases; test: Receptor tyrosine kinases safety profile; type: biochemical; design: dose or concentration left out as unconfirmed
Procedure: These kinases or enzymatic assays were performed by MDS according to the standardized methods

[8] = Platelet, U46619 1 μM, washed human platelets, read-out: IC50 U46619-induced aggregation
[9] = Homo sapiens, Platelet, collagen 10 μg/ml, read-out: inhibition of TXB2 compared to the control

Row | SMILES | IC50 [1] | IC50 [2, 8] | shift of the concentration-response curve of U46619 [2] | U46619 needed to induce the full aggregation [2] | U46619-induced P-selectin expression (human platelets [4]) | collagen-induced P-selectin expression (human platelets [4]) | inhibition at 1 µM [5, 9] | survival rate after 1 day (mice; 10 μg/g i.v.) | collagen-evoked increase of [Ca2+]i (human platelets [6]) | effects on receptor tyrosine kinases [7] | also measured
1 | Cc1ccc(-c2nc3ccc(F)cc3n2Cc2cccc(F)c2)o1 [Ctkf6f2, 6-fluoro-1-(3-fluorobenzyl)-2-(5-methyl-2-furyl)benzimidazole] | 3400 ± 620 nM | 1170 ± 230 nM | right-shift | around 2 μM | decreased | decreased | 43.9% | 100% | concentration-dependently inhibited | little effects | inhibition at 1 µM ([2]; Platelet, human washed platelets, 1 μM compound, U46619 1 μM): 50%; IC50 ([3]; Homo sapiens, collagen 5 μg/ml, read-out: IC50 collagen-induced aggregation in platelet-rich plasma): 31300 ± 7680 nM; inhibition at 0.3 µM ([5]; Homo sapiens, Platelet, collagen 10 μg/ml, 0.3 μM, read-out: inhibition of TXB2 compared to the control): 33%; inhibition at 3 µM ([5]; Homo sapiens, Platelet, collagen 10 μg/ml, 3 μM, read-out: inhibition of TXB2 compared to the control): 64.7%; inhibition at 10 µM ([5]; Homo sapiens, Platelet, collagen 10 μg/ml, 10 μM, read-out: inhibition of TXB2 compared to the control): 73.5%; emboli in lung sections compared with 5185 (mice; 10 μg/g i.v.): smaller emboli; U46619-induced calcium mobilization (human platelets [6]; U46619 1 μM, 1 μM-3 μM compound): markedly inhibited
2 | Cc1ccc(-c2nc3ccccc3n2Cc2ccccc2)o1 [Example 6, 1-Benzyl-2-(5-methyl-2-furyl)benzimidazole] | ~1300 nM | ~2500 nM | right-shift | 0.5 µM | significantly reduced | concentration-dependently reduced to baseline | 52.6% | 100% | markedly inhibited | little effects | % inhibition collagen ([1]; human platelet suspension, preliminary, compound concentration not given): 71.2 (n = 2) %; IC50 ([2]; Platelet, U46619-induced aggregation, platelet suspension, read-out: P.S(U46619) IC50): 2450 nM; inhibition of aggregation induced by U46619 ([2]; human washed platelets, 1 μM compound, U46619 1 μM): could not effectively inhibit; IC50 ([3]; human PRP, data not shown, read-out: IC50 collagen-induced platelet aggregation in human PRP): 64200 ± 2500 nM; TXB2 generation of AA-stimulated platelets ([5]; arachidonic acid 200 μM, 0.7, 2 and 6 μM): concentration-dependently inhibited; TXB2 generation of collagen-stimulated platelets ([5]; collagen 10 μg/ml, 0.7, 2 and 6 μM): concentration-dependently inhibited; mortality after collagen/epinephrine within 1 hr (mice; 5 and 10 μg g^−1, intravenous injection): completely protected mice from death; microemboli in lung sections (mice; nstpbp5185-treated mice vs control): few microemboli; thrombin-evoked increase of [Ca2+]i (human platelets [6]; thrombin 0.1 U/ml, even at 60 μM): no effect
